Measurements reported in the supplement of paper PMC11451515.

System: P12-Ichikawa
Assay: cell viability relative to DMSO control; higher = less cytotoxic
Settings: 48 h
Method in brief: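 Viability is a per-plate percentage relative to DMSO wells, with cell-free wells as background. CellTiter-Glo One luminescence was read after 48 h at 37°C on 1536-well plates (5 μl) of NOMO1 or SEM (500 cells/well) or P12-Ichikawa (1000 cells/well) leukemia cells. The cells had been adapted for at least four passages in each medium and pin-dosed with library compounds in DMSO from 47 μM to 0.79 nM in 11 threefold steps.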

[1] = HPLM + 10% dialyzed FBS, 0.000781 µM
[2] = HPLM + 10% dialyzed FBS, 0.00234 µM
[3] = HPLM + 10% dialyzed FBS, 0.00702 µM
[4] = HPLM + 10% dialyzed FBS, 0.0211 µM
[5] = HPLM + 10% dialyzed FBS, 0.0632 µM
[6] = HPLM + 10% dialyzed FBS, 0.19 µM
[7] = HPLM + 10% dialyzed FBS, 0.569 µM
[8] = HPLM + 10% dialyzed FBS, 1.71 µM
[9] = HPLM + 10% dialyzed FBS, 5.12 µM
[10] = HPLM + 10% dialyzed FBS, 15.4 µM
[11] = HPLM + 10% dialyzed FBS, 46.1 µM
[12] = RPMI 5 mM glucose + 10% FBS, 0.000781 µM
[13] = RPMI 5 mM glucose + 10% FBS, 0.00234 µM
[14] = RPMI 5 mM glucose + 10% FBS, 0.00702 µM
[15] = RPMI 5 mM glucose + 10% FBS, 0.0211 µM
[16] = RPMI 5 mM glucose + 10% FBS, 0.0632 µM
[17] = RPMI 5 mM glucose + 10% FBS, 0.19 µM
[18] = RPMI 5 mM glucose + 10% FBS, 0.569 µM
[19] = RPMI 5 mM glucose + 10% FBS, 1.71 µM
[20] = RPMI 5 mM glucose + 10% FBS, 5.12 µM
[21] = RPMI 5 mM glucose + 10% FBS, 15.4 µM
[22] = RPMI 5 mM glucose + 10% FBS, 46.1 µM
[23] = RPMI 5 mM glucose + 10% dialyzed FBS, 0.000781 µM
[24] = RPMI 5 mM glucose + 10% dialyzed FBS, 0.00234 µM
[25] = RPMI 5 mM glucose + 10% dialyzed FBS, 0.00702 µM
[26] = RPMI 5 mM glucose + 10% dialyzed FBS, 0.0211 µM
[27] = RPMI 5 mM glucose + 10% dialyzed FBS, 0.0632 µM
[28] = RPMI 5 mM glucose + 10% dialyzed FBS, 0.19 µM
[29] = RPMI 5 mM glucose + 10% dialyzed FBS, 0.569 µM
[30] = RPMI 5 mM glucose + 10% dialyzed FBS, 1.71 µM
[31] = RPMI 5 mM glucose + 10% dialyzed FBS, 5.12 µM
[32] = RPMI 5 mM glucose + 10% dialyzed FBS, 15.4 µM
[33] = RPMI 5 mM glucose + 10% dialyzed FBS, 46.1 µM

SMILES | cell viability [1] [%] | cell viability [2] [%] | cell viability [3] [%] | cell viability [4] [%] | cell viability [5] [%] | cell viability [6] [%] | cell viability [7] [%] | cell viability [8] [%] | cell viability [9] [%] | cell viability [10] [%] | cell viability [11] [%] | cell viability [12] [%] | cell viability [13] [%] | cell viability [14] [%] | cell viability [15] [%] | cell viability [16] [%] | cell viability [17] [%] | cell viability [18] [%] | cell viability [19] [%] | cell viability [20] [%] | cell viability [21] [%] | cell viability [22] [%] | cell viability [23] [%] | cell viability [24] [%] | cell viability [25] [%] | cell viability [26] [%] | cell viability [27] [%] | cell viability [28] [%] | cell viability [29] [%] | cell viability [30] [%] | cell viability [31] [%] | cell viability [32] [%] | cell viability [33] [%]
COC1(C[S+]([O-])c2ccccc2)CCN(CCc2c[nH]c3ccc(F)cc23)CC1 (stereo not drawn) | 112 | 105 | 112 | 114 | 113 | 115 | 109 | 96.6 | 102 | 99.6 | 93.2 | 117 | 116 | 133 | 148 | 140 | 99.9 | 78.9 | 78.7 | 115 | 106 | 97.6 | 104 | 111 | 114 | 116 | 109 | 105 | 103 | 98.4 | 105 | 99.9 | 85.4
Cc1ncc([N+](=O)[O-])n1CCO | 116 | 121 | 126 | 125 | 118 | 123 | 120 | 132 | 124 | 110 | 123 | 106 | 115 | 123 | 127 | 112 | 112 | 127 | 124 | 123 | 116 | 120 | 121 | 129 | 122 | 129 | 135 | 135 | 127 | 125 | 131 | 129 | 128
C[S+]([O-])c1ccc(-c2nc(-c3ccc(F)cc3)c(-c3ccncc3)[nH]2)cc1 (stereo not drawn) | 103 | 102 | 97.3 | 111 | 109 | 108 | 107 | 93.6 | 53.5 | 3.78 | 1.78 | 93.8 | 92.2 | 103 | 99 | 102 | 92.8 | 102 | 64.2 | 46.6 | 3.17 | 1.83 | 96.6 | 103 | 99.7 | 97.3 | 98.7 | 99.4 | 98.6 | 74.2 | 45.4 | 3.69 | 2.1
Nc1nc(OCc2ccccc2)c2nc[nH]c2n1 | 108 | 110 | 117 | 115 | 120 | 120 | 120 | 118 | 114 | 112 | 113 | 97.9 | 107 | 120 | 117 | 124 | 111 | 114 | 118 | 120 | 120 | 111 | 105 | 114 | 119 | 117 | 121 | 117 | 122 | 120 | 121 | 120 | 119
Cc1cc(O)c2c(c1)C(=O)c1cc(O)cc(O)c1C2=O | 99.9 | 107 | 99.6 | 104 | 110 | 103 | 110 | 105 | 95.3 | 94.2 | 100 | 100 | 99.2 | 107 | 96.4 | 108 | 104 | 99.1 | 103 | 102 | 90.6 | 86.6 | 91.5 | 92.2 | 88.8 | 97.7 | 99.8 | 97.1 | 96.4 | 90.8 | 97 | 94 | 84.8
CC(C)[C@H](CO)Nc1nc(Nc2cccc(Cl)c2)c2ncn(C(C)C)c2n1 | 98.7 | 112 | 113 | 115 | 113 | 112 | 107 | 104 | 45.9 | 26.6 | 8.74 | 110 | 109 | 120 | 124 | 125 | 115 | 118 | 118 | 76 | 42 | 10.2 | 97.7 | 110 | 112 | 117 | 115 | 106 | 93.4 | 102 | 58.5 | 18.2 | 4.68
OC1=CC=C(C=C1)\C2=C\C(=O)C3=C(O2)C=C(O)C=C3O | 110 | 112 | 113 | 119 | 114 | 120 | 116 | 108 | 107 | 108 | 109 | 111 | 109 | 112 | 111 | 105 | 106 | 104 | 105 | 104 | 109 | 96.6 | 117 | 120 | 119 | 122 | 118 | 113 | 115 | 109 | 110 | 103 | 96.4
COC1=CC=C(C=C1)C2CC(=N/N2C3=CC=C(C=C3)[S+](N)([O-])=O)\C4=CC=CC=C4 (stereo not drawn) | 95.3 | 91.6 | 102 | 102 | 99.5 | 108 | 108 | 83.8 | 63.1 | 4.53 | 2.18 | 101 | 90 | 94 | 94.4 | 106 | 89.6 | 99.8 | 67.8 | 42 | 3.73 | 1.01 | 85.6 | 96.2 | 96.6 | 100 | 95.9 | 85.9 | 91.4 | 65.8 | 35.8 | 4.09 | 1.97
NC\1=N\C(=O)N(\C=C1)[C@H]\2[C@H](O)[C@H](O)C(=C2F)\CO | 95.2 | 106 | 104 | 105 | 105 | 106 | 104 | 60 | 28 | 19.3 | 16.5 | 89.4 | 96.8 | 96.3 | 106 | 103 | 114 | 101 | 95.7 | 47.8 | 29.1 | 16.9 | 91.8 | 114 | 114 | 116 | 115 | 108 | 100 | 89.4 | 67.9 | 23.4 | 11.4
CC(C)(C)NC(=O)[C@H]1CC[C@H]2[C@@H]3CC[C@H]4NC(=O)\C=C/[C@]4(C)[C@H]3CC[C@]12C | 101 | 109 | 106 | 107 | 102 | 103 | 111 | 107 | 109 | 27.7 | 12.7 | 83.5 | 104 | 103 | 108 | 109 | 109 | 109 | 115 | 103 | 31.6 | 10.8 | 94.1 | 100 | 102 | 100 | 107 | 112 | 108 | 115 | 113 | 81.4 | 35.6
Cc1cc(Cl)ccc1OCCCC(=O)NO | 102 | 105 | 105 | 116 | 106 | 105 | 101 | 98.6 | 78.3 | 15 | 3.84 | 97.8 | 102 | 108 | 110 | 101 | 98.2 | 99.4 | 81.2 | 57.9 | 17.4 | 3.91 | 113 | 104 | 108 | 111 | 111 | 102 | 100 | 35.9 | 37.2 | 5.67 | 3.42
N\C1=N\C2=C(N=C[N]2COC(CO)CO)C(=O)N1 | 107 | 108 | 109 | 113 | 115 | 115 | 119 | 120 | 119 | 116 | 5.18 | 104 | 102 | 112 | 119 | 121 | 110 | 124 | 124 | 117 | 107 | 3.39 | 101 | 98.3 | 108 | 118 | 106 | 116 | 113 | 109 | 112 | 109 | 4.18
C=CCn1c(=O)c2cnc(Nc3ccc(N4CCN(C)CC4)cc3)nc2n1-c1cccc(C(C)(C)O)n1 | 120 | 116 | 121 | 125 | 110 | 111 | 99.3 | 43.7 | 17 | 15.9 | 17.4 | – | – | – | – | – | – | – | – | – | – | – | – | – | – | – | – | – | – | – | – | – | –
CC(=O)O[C@@]12CO[C@@H]1C[C@H](O)[C@]3(C)[C@@H]2[C@H](OC(=O)C4=CC=CC=C4)[C@]5(O)C[C@H](OC(=O)C(O)[C@@H](NC(=O)OC(C)(C)C)C6=CC=CC=C6)C(=C(/[C@@H](O)C3=O)C5(C)C)/C (stereo partly drawn) | 28 | 36.3 | 37.7 | 38 | 42.2 | 40.1 | 24.8 | 19.8 | 8.29 | 4.99 | 3.29 | 33.6 | 32.1 | 35.6 | 35.2 | 37.2 | 34.8 | 25.5 | 25.5 | 11.8 | 6.81 | 3.21 | 42.5 | 46.4 | 48.1 | 57.5 | 49.4 | 51.4 | 40.2 | 31.5 | 15.5 | 5.67 | 2.26
C#C[C@]1(O)CC[C@H]2[C@@H]3CCc4cc(OC)ccc4[C@H]3CC[C@@]21C | 118 | 104 | 111 | 106 | 110 | 98.5 | 111 | 102 | 101 | 109 | 98.5 | 110 | 101 | 112 | 106 | 113 | 106 | 106 | 108 | 90.7 | 111 | 97.6 | 103 | 101 | 100 | 107 | 114 | 111 | 107 | 107 | 101 | 102 | 97.6
